Results reported in patent US20260085101A1, “NOVEL PLATELET DERIVED GROWTH FACTOR PEPTIDE MIMETIC” (THE UNIVERSITY OF SYDNEY, priority 2022, published 2026).

Experiments:
C2C12 mouse myoblasts = assay: Collagen gel contraction assay with C2C12 cells; assay type: cell-based; conditions: for collagen gel contracted to % of its initial surface area: 24-hour incubation, 10 ng/ml PDGF, 1 μg/ml peptides, 10 μM AG1296, mean (±SD); for difference in collagen gel area versus negative control AG1296 co-treated with PDGF−AB (Mean Diff.) / difference in collagen gel area versus no treatment control (Mean Diff.): 24 hours; for difference in collagen gel area versus negative control AG1296 co-treated with PDGF−AB (Mean Diff.): vs negative control (55.25%); for difference in collagen gel area versus no treatment control (Mean Diff.): vs no treatment control (41.27%)
Source text: FIG. 3. Collagen Contraction of C2C12 Mouse Fibroblasts Treated with PDGF and peptides JC5 and JC5a. […] Error bars represent ±SD, n=8/4. The function of Compounds Ia (also referred to herein as JC5) and Ib (also referred to herein as JC5a) has been tested in vitro on the continuous cell line, C2C12 mouse myoblasts. In these in vitro assays recombinant PDGF−AB and −BB have been used as positive controls along with a serum starved no treatment control and the PDGF receptor inhibitor AG1296 co-treated with PDGF−AB as a negative control. The in vitro assays were designed to assess the major known functions of PDGF whilst also considering functions that are relevant to its in vivo applications. These functions were chemotaxis, collagen contraction, vascular tube formation and activation of the PDGF receptors via phosphorylation of Akt and Erk. Collagen contraction is an important function during wound healing of many tissues including the heart. This can be simulated in vitro using a collagen gel contraction assay. This was assessed using C2C12 cells treated with the positive controls 10 ng/ml recombinant PDGF-BB and PDGF−AB, negative control 10 μM AG1296 co-treated with 10 ng/ml recombinant PDGF−AB, a serum starved no treatment control and 1 μg/ml of the peptides JC5 and JC5a. C2C12 mouse myoblasts were seeded in a 3D collagen gel crosslinked with NaOH and incubated at 37° C. for 24 hours following treatment with the four controls and peptides JC5 and JC5a.

[1] = tested on: C3H10T½ mouse embryonic fibroblasts; assay: EdU proliferation assay (flow cytometry); assay type: cell-based; conditions: C3H10T½ cells, 1% FBS; for stimulation of the PDGF ligand/receptor pathway inferred from inhibition of EdU levels by AG1296 cotreatment: cotreatment with 10 μM AG1296; for stimulation of proliferation relative to 1% FBS: 24 hr, 20 ng/ml PDGF, 2 μg/ml peptides
Description: FIG. 8. Proliferation of C3H10T½ Cells Following Treatment with PDGF and Novel PDGF Mimetic Peptides. Cultured C3H10T½ mouse embryonic fibroblast cells were treated with 20 ng/ml recombinant PDGF−AB or PDGF−BB protein ligands, and 2 μg/ml of novel PDGF mimetics JC5 or JC5a for 24 hr, in the presence of 1% fetal bovine serum (FBS). Percent proliferating cell was determined after a 2 hr pulse with nucleotide analogue EdU at the end of the incubation period. […] Co-treatment of protein/peptides with 10 μM of PDGF receptor antagonist, AG1296, confirmed that PDGF-BB-stimulated proliferation occurred via the PDGF ligand/receptor pathway. […] Error bars represent ±SD, n=3. Statistical analysis was using One-Way Anova: * p<0.05; ** p<0.01; *** p<0.001; **** p<0.0001. The mitotic effects of PDGF mimetic peptides JC5 and JC5a were tested using cultured C3H10T½ mouse embryonic fibroblasts. Proliferation was assayed after a pulse of nucleotide analogue 5-ethynyl-2′-deoxyuridine (EdU) and fluorescent detection using flow cytometry. Cells were treated with 20 ng/ml PDGF−BB or PDGF−AB, and 2 μg/ml of peptides JC5 or JC5a, in the presence of 1% fetal bovine serum (FBS) and DMEM for 24 hr. 10% FBS was used as a positive control, and co-treatments with specific PDGF receptor antagonist, AG1296, was used to ascertain whether proliferation occurred via the PDGF ligand/receptor pathway. Assays were performed in biological triplicate.

C57BL6/J mice = assay: Murine model of acute myocardial infarction (permanent LAD occlusion), echocardiography and heart weight/tibia length; assay type: in vivo, mouse; conditions: for average day 2 to day 28 Δ ejection fraction: change from day 2 to day 28; for day 28 ejection fraction / decrease in ESV versus PBS (MI) cohort (mean diff.) / mean heart weight/tibia length / mean end systolic volume (ESV) at day 28 / mean end diastolic volume (EDV) at day 28: mice; for day 28 ejection fraction: 28 days post MI, 60 μg/kg PDGF−AB or 32.50 mg/kg peptide via implanted minipump, mean (±SD), PBS 26.89%; for decrease in ESV versus PBS (MI) cohort (mean diff.) / mean heart weight/tibia length / mean end systolic volume (ESV) at day 28 / mean end diastolic volume (EDV) at day 28: day 28 post MI; for mean heart weight/tibia length: PBS 0.01913; for mean end systolic volume (ESV) at day 28 / mean end diastolic volume (EDV) at day 28: minipump; for mean end systolic volume (ESV) at day 28: PBS 116.6 μL; for mean end diastolic volume (EDV) at day 28: PBS 155.9 μL
Source text: FIG. 9: Improved Cardiac function at Day 28 Post Myocardial Infarction. […] C) A decrease in end diastolic volumes was also observed in PDGF−AB (p=0.0016) and JC5 (p=0.0185) treated mice versus PBS. […] E) Timeline of mean EF per treatment group. Baseline indicates the pre-infarct EF per group. Day 2 and day 28 indicates days post infarct. A-C) Error bars represent ±SD. D) Data presented as median ±minimum and maximum values. One way ANOVA comparing all groups to the PBS vehicle control group (n=10/11).
FIG. 11: Decreased Heart Weight/Tibia Length in Mice Treated with JC5. […] Error bars represent ±SD.
Cardiac function was monitored using echocardiography with a post MI baseline at day 2 and a day 28 end point followed by tissue collection and calculation of heart weight divided by tibia length. Mice were randomised into treatment groups receiving either 60 μg/kg of the positive control recombinant human PDGF−AB, 32.50 mg/kg of novel mimetic peptide JC5, 32.50 mg/kg of novel mimetic peptide JC5a, or phosphate buffered saline (PBS) as a vehicle control, via implanted minipump, at the time of infarction. In addition to this sham controls were included using non-infarcted healthy mice receiving either 32.50 mg/kg of novel mimetic peptide JC5 or 32.50 mg/kg of novel mimetic peptide JC5a.
Left ventricular ejection fraction (LVEF) is directly proportionate to the difference between left ventricle end diastolic volume and the left ventricular end systolic volume (LVEDV-LVESV) and inversely proportionate to left ventricular end diastolic volume (LVEDV). The value is created by the following equation LVEF=(LVEDV-LVESV)/LVEDV. Increased end diastolic volume (EDV) indicates possible dilation of the ventricle whilst increased end systolic volume (ESV) indicates a possible decrease in contractile function. In mice treated with positive control PDGF−AB (MI) and novel mimetic peptide JC5 (MI) there was a significant decrease in both ESV and EDV at day 28 when compared to the vehicle control, PBS (MI), cohort. The decreased ESV of the PDGF−AB (MI) cohort at day 28 aligned with what was expected of the positive control with a mean ESV of 55.04 μL (±23.66), […] (mean diff.) less than the PBS (MI) cohort (p=0.0003). […] These were both a significant decrease from the PBS (MI) cohort with a mean EDV of 155.9 μL (±47.15) (JC5 p=0.0185, PDGF−AB p=0.0016).

| Compound | collagen gel contracted to % of its initial surface area (C2C12 mouse myoblasts) | difference in collagen gel area versus negative control AG1296 co-treated with PDGF−AB (Mean Diff.) (C2C12 mouse myoblasts) | difference in collagen gel area versus no treatment control (Mean Diff.) (C2C12 mouse myoblasts) | stimulation of the PDGF ligand/receptor pathway inferred from inhibition of EdU levels by AG1296 cotreatment [1] | stimulation of proliferation relative to 1% FBS [1] | average day 2 to day 28 Δ ejection fraction (C57BL6/J mice; mice post MI) | day 28 ejection fraction (C57BL6/J mice) | decrease in ESV versus PBS (MI) cohort (mean diff.) (C57BL6/J mice) | mean heart weight/tibia length (C57BL6/J mice) | mean end systolic volume (ESV) at day 28 (C57BL6/J mice) | mean end diastolic volume (EDV) at day 28 (C57BL6/J mice) | day 2 to day 28 change in ejection fraction greater than PBS (MI) (mean diff.) (C57BL6/J mice; mice post MI, vs PBS vehicle control) |
| --- | --- | --- | --- | --- | --- | --- | --- | --- | --- | --- | --- | --- |
| PDGF−AB: recombinant human PDGF−AB, AB heterodimer of recombinant PDGF, positive control | 22.46% | 32.79% | 18.82% | weak stimulation of the PDGF ligand/receptor pathway | did not significantly stimulate proliferation | 7.104% | 43.44% | 61.54 µL | 0.01344 | 55.04 µL | 93.75 µL |  |
| PDGF Loop III dimer HSA (CVRKIEIVRKK)2(Peg3)2EYEK(Palm)EYE-C′ [JC5] | 23.01% | 32.23% | 18.26% | weak stimulation of the PDGF ligand/receptor pathway | did not significantly stimulate proliferation | 6.686% | 42.06% | 49.58 µL | 0.01462 | 67.01 µL | 108.6 µL |  |
| CCCCCCCCCCCCCCCC(=O)NCCCC[C@H](NC(=O)[C@H](CCC(=O)O)NC(=O)[C@H](Cc1ccc(O)cc1)NC(=O)[C@@H](CCC(=O)O)NC(=O)CCOCCOCCOCCNC(=O)CCOCCOCCOCCNC(=O)[C@@H](CCCCN)NC(=O)[C@@H](CCCCN)NC(=O)[C@@H](CCCNC(=N)N)NC(=O)[C@@H](NC(=O)[C@@H](NC(=O)[C@H](CCC(=O)O)NC(=O)[C@@H](NC(=O)[C@H](CCCCN)NC(=O)[C@@H](CCCNC(=N)N)NC(=O)[C@H](NC(=O)[C@H](N)CSSC[C@@H](N)C(=O)N[C@@H](C(=O)N[C@H](CCCNC(=N)N)C(=O)N[C@@H](CCCCN)C(=O)N[C@H](C(=O)N[C@@H](CCC(=O)O)C(=O)N[C@H](C(=O)N[C@H](C(=O)N[C@H](CCCNC(=N)N)C(=O)N[C@H](CCCCN)C(=O)N[C@H](CCCCN)C(=O)NCCOCCOCCOCCC(=O)NCCOCCOCCOCCC(=O)N[C@H](CCC(=O)O)C(=O)N[C@@H](Cc1ccc(O)cc1)C(=O)N[C@@H](CCC(=O)O)C(=O)N[C@@H](CCCCNC(=O)CCCCCCCCCCCCCCC)C(=O)N[C@@H](CCC(=O)O)C(=O)N[C@@H](Cc1ccc(O)cc1)C(=O)N[C@@H](CCC(=O)O)C(N)=O)C(C)C)[C@H](C)CC)[C@@H](C)CC)C(C)C)C(C)C)[C@@H](C)CC)[C@H](C)CC)C(C)C)C(=O)N[C@@H](CCC(=O)O)C(=O)N[C@@H](Cc1ccc(O)cc1)C(=O)N[C@@H](CCC(=O)O)C(N)=O [JC5a, PDGF Loop III dimer USA dimer (CVRKIEIVRKK)2(Peg3)2(EYEK(Palm)EYE)2-C′] | 33.28% | 21.96% |  |  | did not significantly stimulate proliferation | 10.82% | 39.24% |  |  |  |  | 18.02% |
